Reference: PubChem BioAssay (NCI)
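Protocol summary: plate cells (96-well), add compound at 5 concentrations, incubate 48 h, interpolate endpoints linearly. TGI marks complete inhibition of growth.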

What was measured:
Test in all cases: NCI tumour cell line growth inhibition, 48 h
SF-268 CNS = tested on: SF-268 CNS
EKVX NSCLC = tested on: EKVX NSCLC
T-47D breast = tested on: T-47D breast
HOP-92 NSCLC = tested on: HOP-92 NSCLC
TK-10 renal = tested on: TK-10 renal
NCI-H460 lung = tested on: NCI-H460 lung
MALME-3M melanoma = tested on: MALME-3M melanoma
HOP-62 NSCLC = tested on: HOP-62 NSCLC
A549 NSCLC = tested on: A549 NSCLC
HCT-15 colon = tested on: HCT-15 colon
LOX IMVI melanoma = tested on: LOX IMVI melanoma
UACC-257 melanoma = tested on: UACC-257 melanoma
ACHN renal = tested on: ACHN renal
NCI/ADR-RES ovarian = tested on: NCI/ADR-RES ovarian
SK-MEL-28 melanoma = tested on: SK-MEL-28 melanoma
MCF7 breast = tested on: MCF7 breast
MOLT-4 leukemia = tested on: MOLT-4 leukemia
SW-620 colon = tested on: SW-620 colon
HL-60(TB) leukemia = tested on: HL-60(TB) leukemia
K-562 leukemia = tested on: K-562 leukemia

Row | Structure (SMILES) | TGI (SF-268 CNS) | TGI (EKVX NSCLC) | TGI (T-47D breast) | TGI (HOP-92 NSCLC) | TGI (TK-10 renal) | TGI (NCI-H460 lung) | TGI (MALME-3M melanoma) | TGI (HOP-62 NSCLC) | TGI (A549 NSCLC) | TGI (HCT-15 colon) | TGI (LOX IMVI melanoma) | TGI (UACC-257 melanoma) | TGI (ACHN renal) | TGI (NCI/ADR-RES ovarian) | TGI (SK-MEL-28 melanoma) | TGI (MCF7 breast) | TGI (MOLT-4 leukemia) | TGI (SW-620 colon) | TGI (HL-60(TB) leukemia) | TGI (K-562 leukemia)
1 | O=C1c2cccnc2-c2nccc3c2c1nc1cc(Br)ccc13 | 0.555 µM | 2.52 µM | 0.848 µM | 2.02 µM | 2.33 µM | 0.304 µM | 0.374 µM | 0.362 µM | 0.309 µM | 0.25 µM | 0.205 µM | 0.837 µM | 0.609 µM | 0.0711 µM | 0.325 µM | 0.083 µM | 0.854 µM | 0.162 µM |  | 
2 | C=C(Cl)C(C)(Cl)CCC(Br)C(C)(C)Cl (configuration not stated) | > 100 µM | > 100 µM |  | 36.5 µM | > 100 µM | 71.9 µM | 38.4 µM | 53.4 µM | > 100 µM |  | 28 µM | 30.5 µM | 31.8 µM | 92.1 µM | 48.1 µM | 30.8 µM | > 100 µM | 30.9 µM | > 100 µM | > 100 µM
3 | COc1ccc(N2C(=O)CSC2c2c[nH]c3ccccc23)cc1 (configuration not stated) | > 100 µM | > 100 µM | > 100 µM | > 100 µM | > 100 µM | > 100 µM |  | > 100 µM |  | > 100 µM | > 100 µM | > 100 µM |  |  | > 100 µM | > 100 µM | > 100 µM | > 100 µM | > 100 µM | > 100 µM
4 | Cn1c2ccccc2c(=O)c2cccc(C(=O)NC(CCCN=C(N)N)C(=O)O)c21 (configuration not stated) | > 100 µM | > 100 µM | > 100 µM |  | > 100 µM | > 100 µM | > 100 µM | > 100 µM | > 100 µM | > 100 µM | > 100 µM | > 100 µM | > 100 µM | 96 µM | > 100 µM | > 100 µM | > 100 µM | > 100 µM |  | > 100 µM
5 | CCC(=O)ONC(=O)Cn1ccc([N+](=O)[O-])n1 | > 100 µM | > 100 µM |  | > 100 µM | > 100 µM |  | > 100 µM | > 100 µM | > 100 µM |  | > 100 µM | > 100 µM | > 100 µM | > 100 µM | > 100 µM | > 100 µM | > 100 µM | > 100 µM | > 100 µM | > 100 µM
6 | Nc1[nH]nc2nc3ccc(C(F)(F)F)cc3nc12 | > 100 µM | > 100 µM |  | 78 µM | > 100 µM | 52.9 µM | > 100 µM | 58.8 µM | > 100 µM | > 100 µM | 50.8 µM | 45.4 µM | > 100 µM | > 100 µM | 42.6 µM | 31.1 µM | > 100 µM | 33.4 µM |  | > 100 µM
7 | O=[N+]([O-])/C(C(Cl)=C(Cl)Cl)=C(\N1CCCCC1)n1cncn1 | 26.9 µM | 31.6 µM | 38.3 µM |  | 33.2 µM | 72.1 µM | 30.9 µM | 37.7 µM | 39.8 µM | 38.1 µM | 42.1 µM | 36.6 µM | 32.7 µM | 56 µM | 37.5 µM | 50.6 µM | > 50.5 µM | 36.9 µM |  | > 100 µM
8 | CSc1sc2ccccc2[s+]1 | > 100 µM |  |  | > 100 µM | > 100 µM | > 100 µM | > 100 µM | > 100 µM | > 100 µM | > 100 µM | > 100 µM | > 100 µM | > 100 µM |  |  |  | > 100 µM | > 100 µM | > 100 µM | > 100 µM
9 | O=C(N/N=C/c1cc(Br)cc(Br)c1[O-])c1ccccc1O.O=C(N/N=C/c1cc(Br)cc(Br)c1[O-])c1ccccc1O.[Cu+2] | 2.51 µM |  |  | 1.28 µM | 1.58 µM | 13.6 µM | 1.35 µM | 0.845 µM |  | 1.77 µM | 1.61 µM | 1.74 µM | 2.42 µM |  | 2.01 µM |  | 2.54 µM |  | 0.359 µM | 0.213 µM
10 | CC1=NNC(=O)C1C(CC(=O)c1c[nH]c2ccccc12)C(=O)O (configuration not stated) | > 100 µM | > 100 µM | > 100 µM | > 100 µM | > 100 µM | > 100 µM | > 100 µM | > 100 µM | > 100 µM | > 100 µM | > 100 µM | > 100 µM | > 100 µM | > 100 µM | > 100 µM |  | > 100 µM | > 100 µM | > 100 µM | > 100 µM
11 | COc1cc2c3c(c1OC)C1(C=CC(=O)C=C1)C[C@H]3N(C)CC2 | > 100 µM | > 100 µM |  | > 100 µM | > 100 µM | > 100 µM | > 100 µM |  | > 100 µM | > 100 µM | > 100 µM | > 100 µM | > 100 µM |  | > 100 µM |  | > 100 µM | > 100 µM |  | 
12 | O=c1c(C(c2ccc(Cl)cc2)c2c(O)c3ccccc3n(-c3ccccc3)c2=O)c(O)c2ccccc2n1-c1ccccc1 | > 100 µM | 91.1 µM |  | > 100 µM | > 100 µM |  | 60.1 µM | > 100 µM | > 100 µM | > 100 µM | > 100 µM |  | 98.5 µM |  | > 100 µM |  | > 100 µM | > 100 µM |  | > 100 µM
13 | COc1ccc(/C=C2\N=C(SC)NC2=O)cc1 | > 100 µM | > 100 µM | > 100 µM |  | > 100 µM |  | > 100 µM | > 100 µM | > 100 µM | > 100 µM | > 100 µM |  |  | > 100 µM | > 100 µM | > 100 µM | > 100 µM | > 100 µM |  | 
14 | CC(C)CC(O)P(=O)(O)O (configuration not stated) |  | > 100 µM | > 100 µM |  | > 100 µM | > 100 µM |  | > 100 µM | > 100 µM |  |  | > 100 µM | > 100 µM |  | > 100 µM | > 100 µM | > 100 µM | > 100 µM | > 100 µM | > 100 µM
